Patent US10683525B2, “Method for producing 2-O-glyceryl-alpha-D-glucopyranoside” (Technische Universität Graz, priority 2006, dated 2020)

Tested on: mannitol dehydrogenase, MDH
Assay: Stabilization of proteins during freeze drying
Format: biochemical
Settings: MDH 0.8 mg/ml, 20-1500 mM αGG in 100 mM Tris/HCl buffer pH 7.0, lyophilized over-night and redissolved; irrespective of the added αGG concentration; 2% without any stabilizer
Procedure: The protein of interest (e.g. mannitol dehydrogenase, MDH) was incubated at a concentration of 0.8 mg/ml in the presence of 0, 20, 50, 100, 500, 1000 or 1500 mM αGG in 100 mM Tris/HCl buffer, pH 7.0. The samples were lyophilized over-night and dissolved in the same buffer again. The specific enzyme activity was determined, using appropriate assays for the corresponding enzyme as described elsewhere (Slatner M. et al., Biochemistry 38: 10489-10498), before and after freeze drying. Without any stabilizer added the enzymatic activity of MDH dropped down to 2% after freeze drying, whereas αGG is able to maintain enzymatic activity up to 48% irrespective of the added αGG concentration.

enzymatic activity of MDH maintained after freeze drying: up to 48%
SMILES: OCC(CO)O[C@H]1O[C@H](CO)[C@@H](O)[C@H](O)[C@H]1O [αGG, 2-O-glyceryl-α-D-glucopyranoside]
